Measured values reported in patent US8759011B2, “Assay system for determining binding of hydrophobic drugs” (Nederlandse Organisatie voor …, priority 2009, dated 2014).

Tested on: human plasma
Assay: plasma binding by partition extraction in dimethylsiloxane-coated 96-well plates
Type: in vitro ADME
Details: for counts in the polymer coating: one plate
Experimental: 96-wells deepwell plates (lot 1450-401 Perkin-Elmer Lifesciences) were coated with dimethylsiloxane by making the solutions A-H here below in n-hexane. The used dimethylsiloxane (Silicone rubber, GE Silicones, Bergen op Zoom, The Netherlands) has a density of 1.06. Solution H contains 9.54 g dimethylsiloxane in 300 ml n-hexane.
From solutions A-H 100 μl is pipetted in row A-H of each plate. Plates were dried to air for minimally 18 hours (overnight).
To each dilution of plasma (solutions 1-12) an identical amount of the compound to be tested is added (about […]/200 μl solution). […] The solutions are incubated with the compound overnight at 4°.
The plasma solutions 1-12 are added to corresponding columns 1-12 of each plate (200 μl/well). Also 200 μl was added to a separate vessel to be able to correct for (plasma concentration dependent) solubilization. The next day the plates are emptied, washed once with aqua bidest and dried. When sufficient dry in all wells 200 μl counting solution (Optiphase Hisafe 2, Perkin Elmer Lifesciences) is added and the plates are covered. After incubation for minimally 4 hours under gently shaking the radioactivity in each plate is determined using liquid scintillation counting with a MicroBeta device (Perkin Elmer).
Additionally a total count was determined for each well. The total count is the count in the polymer coating+the count in the remaining fluid. The latter was determined by isolating 25 μl from solution in each well prior to emptying, and mixing with Optiphase (Perkin Elmer) followed by liquid scintillation counting.
1. For each datapoint for which the total count was determined, the recovery of total radioactivity was determined by comparing with the counts of the reference spiking solution. Cells with a total recovery <75% were excluded from further data analysis.
2. From all rows containing polymer, the a-specific binding, i.e. the corresponding counts from the row without polymer, was substracted.
3. Curve fitting was applied using the following formula for each cell:
Predicted counts in coating=Tc/((1/ffp+1/fp−1)×(fp×Vw)/Kpdms/Vp)), where
The above formula was fitted using ffp and Kpdms target parameters to be optimized using the least squares regression method over all wells that were included in the data analysis, by calculating the squared difference between the measured counts in the coating and the predicted counts in the coating. Results

With `C=C1CC[C@H](O)C/C1=C/C=C1\CCC[C@]2(C)[C@@H]([C@H](C)CCCC(C)(C)O)CC[C@@H]12` [25-hydroxy vitamin D3] the “Free fraction ± s.d.” value (fitted free fraction for 100% plasma, ratio between free fraction and total concentration, average of six 96 well plates) was 0.000502 ± 0.000060, the “counts in the polymer coating” value (plasma 0 ml/ml, coating 0 nl) was 1529 and the “counts in the polymer coating” value (plasma 0 ml/ml, coating 4.1 nl) was 2095. The “counts in the polymer coating” value (plasma 0 ml/ml, coating 10.2 nl) was 3498, the “counts in the polymer coating” value (plasma 0 ml/ml, coating 25.6 nl) was 4260 and the “counts in the polymer coating” value (plasma 0 ml/ml, coating 64 nl) was 5814. For the same molecule, the “counts in the polymer coating” value (plasma 0 ml/ml, coating 160 nl) was 7292, the “counts in the polymer coating” value (plasma 0 ml/ml, coating 400 nl) was 8015 and the “counts in the polymer coating” value (plasma 0 ml/ml, coating 1000 nl) was 8491. For the same molecule, the “counts in the polymer coating” value (plasma 0.0005 ml/ml, coating 0 nl) was 639, the “counts in the polymer coating” value (plasma 0.0005 ml/ml, coating 4.1 nl) was 1753 and the “counts in the polymer coating” value (plasma 0.0005 ml/ml, coating 10.2 nl) was 2581. The “counts in the polymer coating” value (plasma 0.0005 ml/ml, coating 25.6 nl) was 4428, the “counts in the polymer coating” value (plasma 0.0005 ml/ml, coating 64 nl) was 8145 and the “counts in the polymer coating” value (plasma 0.0005 ml/ml, coating 160 nl) was 12361. The “counts in the polymer coating” value (plasma 0.0005 ml/ml, coating 400 nl) was 15727, the “counts in the polymer coating” value (plasma 0.0005 ml/ml, coating 1000 nl) was 16960 and the “counts in the polymer coating” value (plasma 0.0008 ml/ml, coating 0 nl) was 495. The “counts in the polymer coating” value (plasma 0.0008 ml/ml, coating 4.1 nl) was 1176, the “counts in the polymer coating” value (plasma 0.0008 ml/ml, coating 10.2 nl) was 1649 and the “counts in the polymer coating” value (plasma 0.0008 ml/ml, coating 25.6 nl) was 3019. For the same molecule, the “counts in the polymer coating” value (plasma 0.0008 ml/ml, coating 64 nl) was 6029, the “counts in the polymer coating” value (plasma 0.0008 ml/ml, coating 160 nl) was 10164 and the “counts in the polymer coating” value (plasma 0.0008 ml/ml, coating 400 nl) was 13748. For the same molecule, the “counts in the polymer coating” value (plasma 0.0008 ml/ml, coating 1000 nl) was 15479, the “counts in the polymer coating” value (plasma 0.001 ml/ml, coating 0 nl) was 419 and the “counts in the polymer coating” value (plasma 0.001 ml/ml, coating 4.1 nl) was 972. The “counts in the polymer coating” value (plasma 0.001 ml/ml, coating 10.2 nl) was 1545, the “counts in the polymer coating” value (plasma 0.001 ml/ml, coating 25.6 nl) was 2658 and the “counts in the polymer coating” value (plasma 0.001 ml/ml, coating 64 nl) was 5501. The “counts in the polymer coating” value (plasma 0.001 ml/ml, coating 160 nl) was 9700, the “counts in the polymer coating” value (plasma 0.001 ml/ml, coating 400 nl) was 13183 and the “counts in the polymer coating” value (plasma 0.001 ml/ml, coating 1000 nl) was 15022. For the same molecule, the “counts in the polymer coating” value (plasma 0.003 ml/ml, coating 0 nl) was 151, the “counts in the polymer coating” value (plasma 0.003 ml/ml, coating 4.1 nl) was 399 and the “counts in the polymer coating” value (plasma 0.003 ml/ml, coating 10.2 nl) was 603. For the same molecule, the “counts in the polymer coating” value (plasma 0.003 ml/ml, coating 25.6 nl) was 1258, the “counts in the polymer coating” value (plasma 0.003 ml/ml, coating 64 nl) was 2547 and the “counts in the polymer coating” value (plasma 0.003 ml/ml, coating 160 nl) was 5687. For the same molecule, the “counts in the polymer coating” value (plasma 0.003 ml/ml, coating 400 nl) was 9284, the “counts in the polymer coating” value (plasma 0.003 ml/ml, coating 1000 nl) was 11307 and the “counts in the polymer coating” value (plasma 0.005 ml/ml, coating 0 nl) was 109. The “counts in the polymer coating” value (plasma 0.005 ml/ml, coating 4.1 nl) was 257, the “counts in the polymer coating” value (plasma 0.005 ml/ml, coating 10.2 nl) was 428 and the “counts in the polymer coating” value (plasma 0.005 ml/ml, coating 25.6 nl) was 866. For the same molecule, the “counts in the polymer coating” value (plasma 0.005 ml/ml, coating 64 nl) was 1719, the “counts in the polymer coating” value (plasma 0.005 ml/ml, coating 160 nl) was 3804 and the “counts in the polymer coating” value (plasma 0.005 ml/ml, coating 400 nl) was 7410. The “counts in the polymer coating” value (plasma 0.005 ml/ml, coating 1000 nl) was 10375, the “counts in the polymer coating” value (plasma 0.008 ml/ml, coating 0 nl) was 95 and the “counts in the polymer coating” value (plasma 0.008 ml/ml, coating 4.1 nl) was 212. The “counts in the polymer coating” value (plasma 0.008 ml/ml, coating 10.2 nl) was 372, the “counts in the polymer coating” value (plasma 0.008 ml/ml, coating 25.6 nl) was 686 and the “counts in the polymer coating” value (plasma 0.008 ml/ml, coating 64 nl) was 1331. The “counts in the polymer coating” value (plasma 0.008 ml/ml, coating 160 nl) was 3035, the “counts in the polymer coating” value (plasma 0.008 ml/ml, coating 400 nl) was 5863 and the “counts in the polymer coating” value (plasma 0.008 ml/ml, coating 1000 nl) was 9044. For the same molecule, the “counts in the polymer coating” value (plasma 0.01 ml/ml, coating 0 nl) was 90, the “counts in the polymer coating” value (plasma 0.01 ml/ml, coating 4.1 nl) was 169 and the “counts in the polymer coating” value (plasma 0.01 ml/ml, coating 10.2 nl) was 293. For the same molecule, the “counts in the polymer coating” value (plasma 0.01 ml/ml, coating 25.6 nl) was 523, the “counts in the polymer coating” value (plasma 0.01 ml/ml, coating 64 nl) was 1054 and the “counts in the polymer coating” value (plasma 0.01 ml/ml, coating 160 nl) was 2408. For the same molecule, the “counts in the polymer coating” value (plasma 0.01 ml/ml, coating 400 nl) was 5093, the “counts in the polymer coating” value (plasma 0.01 ml/ml, coating 1000 nl) was 8309 and the “counts in the polymer coating” value (plasma 0.02 ml/ml, coating 0 nl) was 82. For the same molecule, the “counts in the polymer coating” value (plasma 0.02 ml/ml, coating 4.1 nl) was 98, the “counts in the polymer coating” value (plasma 0.02 ml/ml, coating 10.2 nl) was 182 and the “counts in the polymer coating” value (plasma 0.02 ml/ml, coating 25.6 nl) was 278. The “counts in the polymer coating” value (plasma 0.02 ml/ml, coating 64 nl) was 641, the “counts in the polymer coating” value (plasma 0.02 ml/ml, coating 160 nl) was 1394 and the “counts in the polymer coating” value (plasma 0.02 ml/ml, coating 400 nl) was 3130. The “counts in the polymer coating” value (plasma 0.02 ml/ml, coating 1000 nl) was 5582, the “counts in the polymer coating” value (plasma 0.03 ml/ml, coating 0 nl) was 62 and the “counts in the polymer coating” value (plasma 0.03 ml/ml, coating 4.1 nl) was 75. The “counts in the polymer coating” value (plasma 0.03 ml/ml, coating 10.2 nl) was 130, the “counts in the polymer coating” value (plasma 0.03 ml/ml, coating 25.6 nl) was 237 and the “counts in the polymer coating” value (plasma 0.03 ml/ml, coating 64 nl) was 409. The “counts in the polymer coating” value (plasma 0.03 ml/ml, coating 160 nl) was 988, the “counts in the polymer coating” value (plasma 0.03 ml/ml, coating 400 nl) was 2209 and the “counts in the polymer coating” value (plasma 0.03 ml/ml, coating 1000 nl) was 4228. The “counts in the polymer coating” value (plasma 0.04 ml/ml, coating 0 nl) was 55, the “counts in the polymer coating” value (plasma 0.04 ml/ml, coating 4.1 nl) was 68 and the “counts in the polymer coating” value (plasma 0.04 ml/ml, coating 10.2 nl) was 87. For the same molecule, the “counts in the polymer coating” value (plasma 0.04 ml/ml, coating 25.6 nl) was 153, the “counts in the polymer coating” value (plasma 0.04 ml/ml, coating 64 nl) was 342 and the “counts in the polymer coating” value (plasma 0.04 ml/ml, coating 160 nl) was 722. The “counts in the polymer coating” value (plasma 0.04 ml/ml, coating 400 nl) was 1681, the “counts in the polymer coating” value (plasma 0.04 ml/ml, coating 1000 nl) was 3295 and the “counts in the polymer coating” value (plasma 0.05 ml/ml, coating 0 nl) was 47. For the same molecule, the “counts in the polymer coating” value (plasma 0.05 ml/ml, coating 4.1 nl) was 48, the “counts in the polymer coating” value (plasma 0.05 ml/ml, coating 10.2 nl) was 70 and the “counts in the polymer coating” value (plasma 0.05 ml/ml, coating 25.6 nl) was 153. For the same molecule, the “counts in the polymer coating” value (plasma 0.05 ml/ml, coating 64 nl) was 296, the “counts in the polymer coating” value (plasma 0.05 ml/ml, coating 160 nl) was 588 and the “counts in the polymer coating” value (plasma 0.05 ml/ml, coating 400 nl) was 1354. The “counts in the polymer coating” value (plasma 0.05 ml/ml, coating 1000 nl) was 2501.
